Each structure is given as a SMILES string. pEC50, pKd: −log10 of the molar value. Where a SMILES comes first, the peptide text is derived from it.

Data on 16 molecules can be found in US12441768B2, “Compositions and methods for treating endometriosis” (EndoMet Biosciences, Inc., priority 2018, dated 2025).

Data set [1] has as its target Wnt-responsive promoter (TCF/LEF). The data set is described as follows: Wnt-dependent luciferase reporter assay. The class given is cell-based, murine. In short, it runs like this:
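Murine 3T3 fibroblasts carrying a TCF/LEF-driven luciferase reporter, stimulated with Wnt3a in the presence of increasing peptide concentrations or vehicle. Luminescence inhibition gave EC50 values in uM.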

For data set [2] the following is noted: % Viability non-Wnt responsive cells.
A further data set addresses T1, β-catenin (Homo sapiens, UniProt P35222).
T1 sequence (P35222 1-781): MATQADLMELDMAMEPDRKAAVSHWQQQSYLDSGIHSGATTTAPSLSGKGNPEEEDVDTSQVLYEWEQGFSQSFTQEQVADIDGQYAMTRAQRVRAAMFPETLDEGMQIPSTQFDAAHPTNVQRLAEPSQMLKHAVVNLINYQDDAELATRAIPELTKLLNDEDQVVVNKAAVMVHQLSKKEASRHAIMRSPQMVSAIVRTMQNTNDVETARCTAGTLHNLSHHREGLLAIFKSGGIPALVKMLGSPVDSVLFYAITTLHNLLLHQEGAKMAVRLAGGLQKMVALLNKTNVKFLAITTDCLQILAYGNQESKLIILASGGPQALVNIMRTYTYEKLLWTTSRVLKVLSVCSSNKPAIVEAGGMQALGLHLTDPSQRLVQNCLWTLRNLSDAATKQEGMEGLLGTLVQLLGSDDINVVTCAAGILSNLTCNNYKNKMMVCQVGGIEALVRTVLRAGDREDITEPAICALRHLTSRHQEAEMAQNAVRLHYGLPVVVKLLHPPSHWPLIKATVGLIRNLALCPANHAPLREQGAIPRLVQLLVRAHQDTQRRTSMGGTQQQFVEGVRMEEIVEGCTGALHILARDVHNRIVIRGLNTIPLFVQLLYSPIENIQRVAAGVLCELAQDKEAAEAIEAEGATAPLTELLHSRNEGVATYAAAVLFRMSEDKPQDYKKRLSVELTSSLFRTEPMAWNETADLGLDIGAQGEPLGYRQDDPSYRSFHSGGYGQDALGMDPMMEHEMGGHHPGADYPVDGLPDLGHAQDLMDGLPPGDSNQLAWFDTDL
The data set is described as follows: KD50 measurement using competitive fluorescence polarization (FP) with labelled TCF4. The class given is binding. Conditions: fluorescence polarization, β-catenin; for pKd: read-out: β-Cat FP KD. The procedure, abridged:
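Competitive FP in which unlabelled inhibitor (10 nM to 30 uM dilution series) displaces 5 nM labelled TCF4 from 100 nM β-catenin, room temperature. Read-out ex 470 nm, em 520 nm; experiment repeated three times.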
For orientation: In fluorescence polarisation assays a small probe gives low polarisation when free and higher when bound to something large.

On to `CC[C@H](C)[C@H](NC(=O)[C@H](CC(C)C)NC(=O)[C@@H](NC(=O)[C@H](Cc1c[nH]c2ccccc12)NC(=O)[C@H](CCSC)NC(C)=O)C1CCCCC1)C(=O)N[C@@H](CO)C(=O)N[C@@H](Cc1ccccc1)C(=O)N[C@@H](Cc1c[nH]c2ccccc12)C(=O)NCC(=O)O` [compound 217] (HELM PEPTIDE1{[ac].M.W.[O=C([C@@H](N[*:1])C1CCCCC1)[*:2]].L.I.S.F.W.G}$$$$V2.0), for which the pEC50 (commonly the EC50 on a negative log10 scale, so that one unit is a factor of ten) in data set [1] was greater than 5.12. In addition, the viability (commonly a read-out of living cells in per cent, often relative to untreated cells) in data set [2] stood at 87.9%. Also, at β-catenin, the “β-Cat FP Hill slope” value is recorded as 1.47 and the pKd – broadly, the Kd on a negative log10 scale, so that one unit is a factor of ten – is greater than 6.40.

In data set [1], `CC[C@H](C)[C@H](NC(=O)[C@H](CC(C)C)NC(=O)[C@H](Cc1ccccc1)NC(=O)[C@H](Cc1c[nH]c2ccccc12)NC(=O)[C@H](CCSC)NC(=O)[C@H](CCCNC(=N)N)NC(=O)[C@H](CO)NC(=O)[C@@H](N)Cc1ccccc1)C(=O)N[C@@H](CO)C(=O)N[C@@H](Cc1ccccc1)C(=O)N[C@@H](Cc1c[nH]c2ccccc12)C(N)=O` [compound 81] (H-FSRMWFLISFW-NH2) showed a negative-log EC50 (pEC50) of less than 4.52. For the same molecule, the viability in data set [2] worked out at 90.7%. For the same molecule, the pKd at β-catenin is less than 4.52.

`CC[C@H](C)[C@H](NC(=O)[C@H](CC(C)C)NC(=O)[C@@H](NC(=O)[C@H](Cc1c[nH]c2ccccc12)NC(=O)[C@@H](N)Cc1c[nH]cn1)[C@@H](C)CC)C(=O)N[C@@H](CS)C(=O)N[C@@H](Cc1ccccc1)C(=O)N[C@@H](Cc1c[nH]c2ccccc12)C(=O)NCC(=O)O` [compound 118] (H-HWILICFWG-OH) showed a negative logarithm of the EC50 (pEC50) in data set [1] greater than 5.12. Besides, the viability in data set [2] was determined as 99.9%. The negative-log Kd (pKd) on β-catenin is less than 4.52.

In the case of `CC[C@H](C)[C@H](NC(=O)[C@H](CC(C)C)NC(=O)[C@@H](NC(=O)[C@H](Cc1c[nH]c2ccccc12)NC(=O)[C@@H](N)CCCCN)[C@@H](C)CC)C(=O)N[C@@H](CS)C(=O)N[C@@H](Cc1ccccc1)C(=O)N[C@@H](Cc1c[nH]c2ccccc12)C(=O)NCC(=O)O` [compound 117] (H-KWILICFWG-OH), the negative-log EC50 (pEC50) in data set [1] was 4.65 to 4.82. For the same molecule, in data set [2], the viability came out at 138%. Also, at β-catenin, the negative-log Kd (pKd) is less than 4.52.

In data set [1], `CC[C@H](C)[C@@H]1NC(=O)[C@H](CC(C)C)NC(=O)[C@H](Cc2ccccc2)NC(=O)[C@H](Cc2c[nH]c3ccccc23)NC(=O)[C@H](CCSC)NC(=O)CCCNC(=O)C[C@@H](C(=O)O)NC(=O)[C@H](Cc2c[nH]c3ccccc23)NC(=O)[C@H](C)NC(=O)[C@H](CS)NC1=O` [compound 191] (HELM PEPTIDE1{[O=C(CCCN[*:1])[*:2]].M.W.F.L.I.C.A.W.D}$PEPTIDE1,PEPTIDE1,1:R1-10:R3$$$V2.0) showed a pEC50 of 4.82 to 5.12. Besides, in data set [2], the viability stood at 99.1%. Besides, on β-catenin, the “β-Cat FP Hill slope” value was 1.3 and the pKd was 6.00 to 6.40.

Turning to `CC[C@H](C)[C@@H]1NC(=O)[C@H](CC(C)C)NC(=O)[C@H](Cc2ccccc2)NC(=O)[C@H](Cc2c[nH]c3ccccc23)NC(=O)[C@@H](N)CCCCNC(=O)CC[C@@H](C(=O)N[C@@H](Cc2c[nH]c3ccccc23)C(=O)NCC(=O)O)NC(=O)[C@H](CS)NC1=O` [compound 173] (HELM PEPTIDE1{K.W.F.L.I.C.E.W.G}$PEPTIDE1,PEPTIDE1,1:R3-7:R3$$$V2.0), the pEC50 in data set [1] was less than 4.52. In data set [2], the viability was 107%. Further, the “β-Cat FP Hill slope” value at β-catenin stood at 0.7.

`CC[C@H](C)[C@@H]1NC(=O)[C@H](CC(C)C)NC(=O)[C@H](Cc2ccccc2)NC(=O)[C@H](Cc2c[nH]c3ccccc23)NC(=O)[C@@H](N)CCCCNC(=O)C[C@@H](C(=O)O)NC(=O)[C@H](Cc2c[nH]c3ccccc23)NC(=O)[C@H](Cc2ccccc2)NC(=O)[C@H](CS)NC1=O` [compound 172] (HELM PEPTIDE1{K.W.F.L.I.C.F.W.D}$PEPTIDE1,PEPTIDE1,1:R3-9:R3$$$V2.0): the pEC50 in data set [1] is greater than 5.12. Besides, the viability in data set [2] came to 90.8%. At β-catenin, the “β-Cat FP Hill slope” value came out at 0.7 and the pKd was 5.00 to 6.00.

`CC[C@H](C)[C@H](NC(=O)[C@H](CC(C)C)NC(=O)[C@H](Cc1ccccc1)NC(=O)[C@H](Cc1c[nH]c2ccccc12)NC(=O)[C@@H](N)CCSC)C(=O)N[C@@H](CCCCN)C(=O)N[C@@H](Cc1ccccc1)C(=O)N[C@@H](Cc1ccc(O)cc1)C(=O)NCC(=O)O` [compound 151] (H-MWFLIKFYG-OH) showed a pEC50 in data set [1] of 4.65 to 4.82. Besides, in data set [2], the viability was 107%. For the same molecule, on β-catenin, the “β-Cat FP Hill slope” value was found to be 0.7 and the pKd was 6.00 to 6.40.

For the molecule `CC[C@H](C)[C@H](NC(=O)[C@H](Cc1c[nH]c2ccccc12)NC(=O)[C@@H](N)CCSC)C(=O)N[C@@H](CC(C)C)C(=O)N[C@H](C(=O)N[C@H](C(=O)N[C@@H](Cc1ccccc1)C(=O)N[C@@H](Cc1c[nH]c2ccccc12)C(=O)NCC(=O)O)[C@@H](C)O)[C@@H](C)CC` [compound 150] (H-MWILITFWG-OH), the negative-log EC50 (pEC50) in data set [1] is greater than 5.12. Also, the viability in data set [2] stood at 99.8%. Besides, the negative-log Kd (pKd) at β-catenin was less than 4.52.

As to `CC[C@H](C)[C@@H]1NC(=O)[C@H](CC(C)C)NC(=O)[C@H](Cc2ccccc2)NC(=O)[C@H](Cc2c[nH]c3ccccc23)NC(=O)[C@H](CCSC)NC(=O)[C@@H](N)CCCCNC(=O)C[C@@H](C(=O)O)NC(=O)[C@H](Cc2c[nH]c3ccccc23)NC(=O)[C@H](C)NC(=O)[C@H](CS)NC1=O` [compound 167] (HELM PEPTIDE1{K.M.W.F.L.I.C.A.W.D}$PEPTIDE1,PEPTIDE1,1:R3-10:R3$$$V2.0), the pEC50 in data set [1] was 4.82 to 5.12. Also, the viability in data set [2] is 98.8%. Besides, on β-catenin, the “β-Cat FP Hill slope” value came to 0.7 and the pKd was 5.00 to 6.00.

With `CC[C@H](C)[C@H](NC(=O)[C@H](CC(C)C)NC(=O)[C@H](Cc1ccccc1)NC(=O)[C@H](Cc1c[nH]c2ccccc12)NC(=O)[C@@H](N)CCSC)C(=O)N[C@@H](CSC)C(=O)N[C@@H](Cc1ccccc1)C(=O)N[C@@H](Cc1c[nH]c2ccccc12)C(=O)NCC(=O)O` [compound 214] (H-MWFLIC(Me)FWG-OH), in data set [1], the pEC50 was greater than 5.12. Moreover, in data set [2], the viability was 102%. Further, at β-catenin, the “β-Cat FP Hill slope” value is recorded as 0.7 and the negative logarithm of the Kd (pKd) is 6.00 to 6.40.

`CC[C@H](C)[C@H](NC(=O)[C@H](CC(C)C)NC(=O)[C@@H](NC(=O)C(C)(Cc1c[nH]c2ccccc12)NC(=O)[C@@H](N)CCSC)[C@@H](C)CC)C(=O)N[C@@H](CO)C(=O)N[C@@H](Cc1ccccc1)C(=O)N[C@@H](Cc1c[nH]c2ccccc12)C(=O)NCC(=O)O` (stereo partly drawn) [compound 134] (HELM PEPTIDE1{M.[CC(Cc1c[nH]c2ccccc12)(N[*:1])C(=O)[*:2]].I.L.I.S.F.W.G}$$$$V2.0): the negative logarithm of the EC50 (pEC50) in data set [1] was less than 4.52. The viability in data set [2] turned out to be 97.9%. Moreover, on β-catenin, the “β-Cat FP Hill slope” value is 1.47 and the pKd is 5.00 to 6.00.

Turning to `CC[C@H](C)[C@H](NC(=O)[C@H](CC(C)C)NC(=O)[C@@H](NC(=O)[C@H](Cc1c[nH]c2ccccc12)NC(=O)[C@@H](N)CCSC)[C@@H](C)CC)C(=O)N[C@@H](CO)C(=O)N[C@@H](Cc1ccccc1)C(=O)N[C@@H](Cc1c[nH]c2ccccc12)C(=O)NCC(=O)O` [compound 155] (H-MWILISFWG-OH), the pEC50 in data set [1] was less than 4.52. The viability in data set [2] was determined as 97%. Besides, the pKd at β-catenin was less than 4.52.

Consider `CC[C@H](C)[C@@H]1NC(=O)[C@H](CC(C)C)NC(=O)[C@H](Cc2ccccc2)NC(=O)[C@H](Cc2c[nH]c3ccccc23)NC(=O)[C@H](CCSC)NC(=O)[C@@H](N)CCCCNC(=O)C[C@@H](C(=O)O)NC(=O)[C@H](Cc2c[nH]c3ccccc23)NC(=O)[C@H](Cc2ccccc2)NC(=O)[C@H](CO)NC1=O` [compound 171] (HELM PEPTIDE1{K.M.W.F.L.I.S.F.W.D}$PEPTIDE1,PEPTIDE1,1:R3-10:R3$$$V2.0), for which, in data set [1], the negative-log EC50 (pEC50) was greater than 5.12. In addition, the viability in data set [2] amounted to 79.6%. Besides, at β-catenin, the “β-Cat FP Hill slope” value turned out to be 0.7 and the pKd is 5.00 to 6.00.

In the case of `CC[C@H](C)[C@H](NC(=O)[C@H](CC(C)C)NC(=O)[C@H](Cc1ccccc1)NC(=O)[C@H](Cc1c[nH]c2ccccc12)NC)C(=O)N[C@@H](CO)C(=O)N[C@@H](Cc1ccccc1)C(=O)N[C@@H](Cc1c[nH]c2ccccc12)C(N)=O` [compound 102] (HELM PEPTIDE1{[meW].F.L.I.S.F.W.[am]}$$$$V2.0), the negative logarithm of the EC50 (pEC50) in data set [1] was 4.65 to 4.82. The viability in data set [2] amounted to 101%. Besides, on β-catenin, the “β-Cat FP Hill slope” value is 0.7 and the pKd is greater than 6.40.

The molecule `CC[C@H](C)[C@H](NC(=O)[C@H](CC(C)C)NC(=O)[C@H](Cc1ccccc1)NC(=O)[C@H](Cc1c[nH]c2ccccc12)NC(=O)[C@@H](N)CCSC)C(=O)N[C@@H](CS)C(=O)N[C@@H](Cc1ccccc1)C(=O)N[C@@H](Cc1c[nH]c2ccccc12)C(=O)NCCCC(=O)O` [compound 153] (HELM PEPTIDE1{M.W.F.L.I.C.F.W.[O=C(O)CCCN[*:1]]}$$$$V2.0) gave a pEC50 in data set [1] greater than 5.12. In data set [2], the viability was 104%. For the same molecule, the pKd on β-catenin is less than 4.52.
